Results taken from ChEMBL document CHEMBL1158952, “An Nmr Study of Four Benzophenanthridine Alkaloids” (J Nat Prod, 1991).
Activity calls are given as the source filed them.

Legend:
Format in all cases: functional, organism-based
Micrococcus luteus = assay: Antimicrobial activity against Micrococcus luteus ATCC 9341 at 25 ug
Escherichia coli = assay: Antimicrobial activity against Escherichia coli ATCC 25922 at 25 ug
Bacillus subtilis = assay: Antimicrobial activity against Bacillus subtilis ATCC 6633 at 25 ug
Penicillium oxalicum = assay: Antimicrobial activity against Penicillium oxalicum CBS 219.30 at 25 ug

Measured: Activity

COc1ccc2c(c1OC)CN(C)c1c-2ccc2cc3c(cc12)OCO3
inactive: all assays above

CN1Cc2c(ccc3c2OCO3)-c2ccc3cc4c(cc3c21)OCO4
inactive: all assays above

COc1ccc2c(c1OC)CN(C)c1c-2cc(OC)c2cc3c(cc12)OCO3
inactive: all assays above

COc1cc2c(c3c1-c1ccc4cc5c(cc4c1N(C)C3)OCO5)OCO2
inactive: all assays above
